Measured values: patent US11820776B2, “Process for the preparation of Remimazolam and solid state forms of Remimazolam salts” (WATSON LABORATORIES INC., priority 2017, dated 2023)

Columns and labels:
Format in all cases: physicochemical
[1] = Solid state stability at 80% relative humidity in open Petri dish; conditions: 80% relative humidity (RH), room temperature (RT)
[2] = Solubility in various pH ranges; conditions: comparator not stated
Kinetic water solubility = conditions: comparator not stated
[3] = Compressibility properties; conditions: compared to Remimazolam besylate; may indicate better flow properties
Bulk density = conditions: compared to Remimazolam besylate

Row | SMILES | period for which the crystalline form is stable [1] | solubility in various pH ranges [2] | kinetic water solubility (Kinetic water solubility) | compressibility properties [3] | bulk density (Bulk density)
1 | Br.COC(=O)CC[C@@H]1N=C(c2ccccn2)c2cc(Br)ccc2-n2c(C)cnc21 [Form 1 of Remimazolam Mono hydrobromide] | at least 24 hours | improved | improved | – | –
2 | CC1(C)C2CCC1(CS(=O)(=O)O)C(=O)C2.COC(=O)CC[C@@H]1N=C(c2ccccn2)c2cc(Br)ccc2-n2c(C)cnc21 [Form 2 of Remimazolam Camphor Sulfonate] | at least 24 hours | – | – | improved | higher
3 | COC(=O)CC[C@@H]1N=C(c2ccccn2)c2cc(Br)ccc2-n2c(C)cnc21.CS(=O)(=O)O [Form 2 of Remimazolam Methane Sulfonate] | at least 24 hours | improved | improved | – | –
